This is an account of results in paper PMC7612441 (The Febs Journal, 2021).

Usually Kd stands for the free concentration of one partner at which half of the binding sites on the other are occupied at equilibrium, for simple one-to-one binding. A low value points to a tighter complex.

One assay has as its target T1, NUDT9 (Homo sapiens, UniProt Q9BW91).
T1 sequence (Q9BW91 59-350): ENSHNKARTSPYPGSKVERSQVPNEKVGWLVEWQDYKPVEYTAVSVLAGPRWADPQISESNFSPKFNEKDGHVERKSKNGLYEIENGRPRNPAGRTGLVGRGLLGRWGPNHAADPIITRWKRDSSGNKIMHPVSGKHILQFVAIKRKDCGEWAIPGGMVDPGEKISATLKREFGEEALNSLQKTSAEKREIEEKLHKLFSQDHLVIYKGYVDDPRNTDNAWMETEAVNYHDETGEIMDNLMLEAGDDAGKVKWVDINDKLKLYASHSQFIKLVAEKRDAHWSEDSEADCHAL
The assay is described as follows: isothermal titration calorimetry, one-site fit. Format: binding. The following applies: Ca2+ (5 mM CaCl2) as cofactor, no hydrolysis; 20 mM HEPES pH 7.5, 150 mM NaCl, 20 °C.

Another assay addresses T2, NUDT9trC RIL (Homo sapiens, UniProt Q9BW91, E230I/F231L).
T2 sequence (Q9BW91 59-339 E230I/F231L): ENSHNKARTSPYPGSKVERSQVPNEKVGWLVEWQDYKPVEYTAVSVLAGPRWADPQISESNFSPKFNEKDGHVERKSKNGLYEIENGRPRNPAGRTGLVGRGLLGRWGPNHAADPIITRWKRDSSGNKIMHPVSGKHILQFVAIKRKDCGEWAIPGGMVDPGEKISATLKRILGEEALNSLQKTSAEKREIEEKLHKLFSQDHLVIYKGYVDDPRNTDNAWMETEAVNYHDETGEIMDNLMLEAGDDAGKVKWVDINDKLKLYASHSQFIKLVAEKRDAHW
The assay is described as follows: isothermal titration calorimetry, one-site fit. The following applies: Mg2+ (5 mM MgCl2) as cofactor; 20 mM HEPES pH 7.5, 150 mM NaCl, 20 °C; catalytically inactive mutant. It is filed as binding. Background: Isothermal titration calorimetry measures the heat released or taken up as one component is titrated into another.

Consider `Nc1ncnc2c1ncn2[C@H]1C[C@H](O)[C@@H](COP(=O)(O)OP(=O)(O)OC[C@H]2OC(O)[C@H](O)[C@@H]2O)O1` (stereo partly shown) [2′‐deoxy‐ADPR], for which the Kd at NUDT9 was 9 ± 2 nM; at NUDT9trC RIL it was 12 ± 7 nM.
For the compound `Nc1ncnc2c1ncn2[C@@H]1O[C@H](COP(=O)(O)OP(=O)(O)OC[C@H]2OC(O)[C@H](O)[C@@H]2O)[C@@H](O)[C@H]1O` (stereo partly shown) [ADPR], the Kd is 12 ± 4 nM at NUDT9 and 16 ± 4 nM on NUDT9trC RIL.
